Results: the supplement of paper PMC10307832

Columns and labels:
Experiment in all cases: relative viability (nuclei count vs DMSO), 5 days (fraction); higher = more cells survive
NCI-H1651 = test system: NCI-H1651
Outline: (§1)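 Dosing by pin tool came one day after lung cancer cell lines were seeded in 1536-well plates, using either one drug or a fixed anchor-drug dose plus five library-drug doses (not always all listed) in √10 steps. After 5 days, nuclei were counted on 4× images. Relative viability is treated-well nuclei count divided by vehicle-well nuclei count, and values are medians of duplicate plates.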

SK-LU-1 = test system: SK-LU-1
Outline: as §1

COR-L 105 = test system: COR-L 105
Outline: as §1

NCI-H2085 = test system: NCI-H2085
Outline: as §1

PC-3 [JPC-3] = test system: PC-3 [JPC-3]
Outline: as §1

NCI-H1944 = test system: NCI-H1944
Outline: as §1

NCI-H1793 = test system: NCI-H1793
Outline: as §1

EMC-BAC-2 = test system: EMC-BAC-2
Outline: as §1

NCI-H1437 = test system: NCI-H1437
Outline: as §1

LK-2 = test system: LK-2
Outline: as §1

NCI-H2228 = test system: NCI-H2228
Outline: as §1

H3255 = test system: H3255
Outline: as §1

NCI-H2087 = test system: NCI-H2087
Outline: as §1

NCI-H1755 = test system: NCI-H1755
Outline: as §1

CAL-12T = test system: CAL-12T
Outline: as §1

NCI-H1395 = test system: NCI-H1395
Outline: as §1

NCI-H661 = test system: NCI-H661
Outline: as §1

LXF-289 = test system: LXF-289
Outline: as §1

NCI-H2347 = test system: NCI-H2347
Outline: as §1

EKVX = test system: EKVX
Outline: as §1

NCI-H1915 = test system: NCI-H1915
Outline: as §1

LC-2-ad = test system: LC-2-ad
Outline: as §1

SK-MES-1 = test system: SK-MES-1
Outline: as §1

For `O=C(O)CCCCC(CCSCc1ccccc1)SCc1ccccc1` (centres undefined) [CPI-613] + N=C(N)NC(=N)NCCc1ccccc1 [Phenformin] (partner 250 µM), the relative viability (NCI-H1651; first compound 5 µM) was 0.326, the relative viability (NCI-H1651; first compound 15.81 µM) was 0.316 and the relative viability (NCI-H1651; first compound 50 µM) was 0.303. It also gave a relative viability (NCI-H1651; first compound 158.11 µM) of 0.166, a relative viability (NCI-H1651; first compound 500 µM) of 0.126 and a relative viability (SK-LU-1; first compound 5 µM) of 0.547. For the same molecule, the relative viability (SK-LU-1; first compound 15.81 µM) was 0.479, the relative viability (SK-LU-1; first compound 50 µM) was 0.642 and the relative viability (SK-LU-1; first compound 158.11 µM) was 0.248. The relative viability (SK-LU-1; first compound 500 µM) was 0.0581, the relative viability (COR-L 105; first compound 5 µM) was 0.428 and the relative viability (COR-L 105; first compound 15.81 µM) was 0.405. For the same molecule, the relative viability (COR-L 105; first compound 50 µM) was 0.443, the relative viability (COR-L 105; first compound 158.11 µM) was 0.279 and the relative viability (COR-L 105; first compound 500 µM) was 0.112. It also gave a relative viability (NCI-H2085; first compound 5 µM) of 0.814, a relative viability (NCI-H2085; first compound 15.81 µM) of 0.62 and a relative viability (NCI-H2085; first compound 50 µM) of 0.701. The relative viability (NCI-H2085; first compound 158.11 µM) was 0.295, the relative viability (NCI-H2085; first compound 500 µM) was 0.0903 and the relative viability (PC-3 [JPC-3]; first compound 5 µM) was 0.474. For the same molecule, the relative viability (PC-3 [JPC-3]; first compound 15.81 µM) was 0.495, the relative viability (PC-3 [JPC-3]; first compound 50 µM) was 0.494 and the relative viability (PC-3 [JPC-3]; first compound 158.11 µM) was 0.465. For the same molecule, the relative viability (PC-3 [JPC-3]; first compound 500 µM) was 0.0769, the relative viability (NCI-H1944; first compound 5 µM) was 0.194 and the relative viability (NCI-H1944; first compound 15.81 µM) was 0.185. For the same molecule, the relative viability (NCI-H1944; first compound 50 µM) was 0.187, the relative viability (NCI-H1944; first compound 158.11 µM) was 0.14 and the relative viability (NCI-H1944; first compound 500 µM) was 0.0441. It also gave a relative viability (NCI-H1793; first compound 5 µM) of 0.314, a relative viability (NCI-H1793; first compound 15.81 µM) of 0.319 and a relative viability (NCI-H1793; first compound 50 µM) of 0.45. It also gave a relative viability (NCI-H1793; first compound 158.11 µM) of 0.194, a relative viability (NCI-H1793; first compound 500 µM) of 0.0229 and a relative viability (EMC-BAC-2; first compound 5 µM) of 0.531. The relative viability (EMC-BAC-2; first compound 15.81 µM) was 0.517, the relative viability (EMC-BAC-2; first compound 50 µM) was 0.502 and the relative viability (EMC-BAC-2; first compound 158.11 µM) was 0.226. It also gave a relative viability (EMC-BAC-2; first compound 500 µM) of 0.0232, a relative viability (NCI-H1437; first compound 5 µM) of 0.237 and a relative viability (NCI-H1437; first compound 15.81 µM) of 0.282. It also gave a relative viability (NCI-H1437; first compound 50 µM) of 0.287, a relative viability (NCI-H1437; first compound 158.11 µM) of 0.119 and a relative viability (NCI-H1437; first compound 500 µM) of 0.0327. The relative viability (LK-2; first compound 5 µM) was 0.379, the relative viability (LK-2; first compound 15.81 µM) was 0.32 and the relative viability (LK-2; first compound 50 µM) was 0.517. The relative viability (LK-2; first compound 158.11 µM) was 0.346, the relative viability (LK-2; first compound 500 µM) was 0.0954 and the relative viability (NCI-H2228; first compound 5 µM) was 0.344. The relative viability (NCI-H2228; first compound 15.81 µM) was 0.33, the relative viability (NCI-H2228; first compound 50 µM) was 0.222 and the relative viability (NCI-H2228; first compound 158.11 µM) was 0.208. For the same molecule, the relative viability (NCI-H2228; first compound 500 µM) was 0.0339, the relative viability (H3255; first compound 5 µM) was 0.351 and the relative viability (H3255; first compound 15.81 µM) was 0.299. The relative viability (H3255; first compound 50 µM) was 0.399, the relative viability (H3255; first compound 500 µM) was 0.299 and the relative viability (NCI-H2087; first compound 5 µM) was 0.387. It also gave a relative viability (NCI-H2087; first compound 15.81 µM) of 0.438, a relative viability (NCI-H2087; first compound 50 µM) of 0.379 and a relative viability (NCI-H2087; first compound 158.11 µM) of 0.129. It also gave a relative viability (NCI-H2087; first compound 500 µM) of 0.0066, a relative viability (NCI-H1755; first compound 5 µM) of 0.608 and a relative viability (NCI-H1755; first compound 15.81 µM) of 0.642. It also gave a relative viability (NCI-H1755; first compound 50 µM) of 0.558, a relative viability (NCI-H1755; first compound 158.11 µM) of 0.533 and a relative viability (NCI-H1755; first compound 500 µM) of 0.183. The relative viability (CAL-12T; first compound 5 µM) was 0.538, the relative viability (CAL-12T; first compound 15.81 µM) was 0.546 and the relative viability (CAL-12T; first compound 50 µM) was 0.464. It also gave a relative viability (CAL-12T; first compound 158.11 µM) of 0.0459, a relative viability (CAL-12T; first compound 500 µM) of 0.0085 and a relative viability (NCI-H1395; first compound 5 µM) of 0.419. It also gave a relative viability (NCI-H1395; first compound 15.81 µM) of 0.427, a relative viability (NCI-H1395; first compound 50 µM) of 0.433 and a relative viability (NCI-H1395; first compound 158.11 µM) of 0.457. For the same molecule, the relative viability (NCI-H1395; first compound 500 µM) was 0.397, the relative viability (NCI-H661; first compound 5 µM) was 0.291 and the relative viability (NCI-H661; first compound 15.81 µM) was 0.235. It also gave a relative viability (NCI-H661; first compound 50 µM) of 0.304, a relative viability (NCI-H661; first compound 158.11 µM) of 0.214 and a relative viability (NCI-H661; first compound 500 µM) of 0.113. For the same molecule, the relative viability (LXF-289; first compound 5 µM) was 0.516, the relative viability (LXF-289; first compound 15.81 µM) was 0.504 and the relative viability (LXF-289; first compound 50 µM) was 0.511. It also gave a relative viability (LXF-289; first compound 158.11 µM) of 0.443, a relative viability (LXF-289; first compound 500 µM) of 0.0481 and a relative viability (NCI-H2347; first compound 5 µM) of 0.441. The relative viability (NCI-H2347; first compound 15.81 µM) was 0.352, the relative viability (NCI-H2347; first compound 50 µM) was 0.461 and the relative viability (NCI-H2347; first compound 158.11 µM) was 0.471. For the same molecule, the relative viability (NCI-H2347; first compound 500 µM) was 0.378, the relative viability (EKVX; first compound 5 µM) was 0.247 and the relative viability (EKVX; first compound 15.81 µM) was 0.223. It also gave a relative viability (EKVX; first compound 50 µM) of 0.212, a relative viability (EKVX; first compound 158.11 µM) of 0.164 and a relative viability (EKVX; first compound 500 µM) of 0.213. The relative viability (NCI-H1915; first compound 5 µM) was 0.374, the relative viability (NCI-H1915; first compound 15.81 µM) was 0.372 and the relative viability (NCI-H1915; first compound 50 µM) was 0.354. The relative viability (NCI-H1915; first compound 158.11 µM) was 0.339, the relative viability (NCI-H1915; first compound 500 µM) was 0.0398 and the relative viability (LC-2-ad; first compound 5 µM) was 0.569. It also gave a relative viability (LC-2-ad; first compound 15.81 µM) of 0.558, a relative viability (LC-2-ad; first compound 50 µM) of 0.567 and a relative viability (LC-2-ad; first compound 158.11 µM) of 0.396. It also gave a relative viability (LC-2-ad; first compound 500 µM) of 0.0712, a relative viability (SK-MES-1; first compound 5 µM) of 0.642 and a relative viability (SK-MES-1; first compound 15.81 µM) of 0.623. For the same molecule, the relative viability (SK-MES-1; first compound 50 µM) was 0.599, the relative viability (SK-MES-1; first compound 158.11 µM) was 0.147 and the relative viability (SK-MES-1; first compound 500 µM) was 0.0887.
